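Exposure lasted 48 hours, with cells grown in 96-well plates and compounds tested at five concentrations. At the TGI there is no net growth.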

What all share (assay): DTP human tumour cell line panel, 48 h
For assay [1], the system named is HS 578T breast.
Assay [2] relates to SN12C renal.
Assay [3] relates to A549 NSCLC.
Assay [4] concerns CCRF-CEM leukemia.
Assay [5] relates to MOLT-4 leukemia.
Assay [6] relates to OVCAR-4 ovarian.
For assay [7], the system named is ACHN renal.
Assay [8] relates to HCT-15 colon.
The test system of assay [9] is BT-549 breast.
Assay [10] deals with PC-3 prostate.
The subject of assay [11] is K-562 leukemia.
The test system of assay [12] is SK-MEL-5 melanoma.
In assay [13] the test system is MCF7 breast.
The subject of assay [14] is SR leukemia.
Assay [15] relates to U251 CNS.
Assay [16] deals with HOP-92 NSCLC.
Assay [17] deals with NCI-H522 lung.
In assay [18] the test system is A498 renal.
Assay [19] has as its system TK-10 renal.

In the case of `NC(CCC(=O)NC(CSC(=O)N(O)c1ccc(Cl)cc1)C(=O)NCC(=O)O)C(=O)O` (stereo unspecified), the TGI in assay [1], in assay [2], in assay [3], in assay [4], in assay [5] and in assay [6] was over 0.5 µM throughout. Further, the TGI in assay [7], in assay [8], in assay [9], in assay [10], in assay [11] and in assay [12] was over 0.5 µM throughout. The TGI in [13], in assay [14], in assay [15], in assay [16] and in assay [17] was over 0.5 µM each time.

For `Clc1ccc(/C=C/c2nc(-c3ccc(Cl)cc3)cn3c2nc2ccccc23)cc1`, the TGI in assay [1], in assay [2], in assay [3], in assay [4], in assay [5] and in assay [6] was over 100 µM each time. The TGI in [7], in assay [18], in [8], in assay [9], in assay [10] and in assay [11] was over 100 µM throughout. Besides, the concentration for total growth inhibition (TGI) in assay [12], in assay [19], in assay [13], in assay [14], in assay [15] and in [16] was over 100 µM each time.

`O=C(Nc1ccccc1)c1cc2c(cc1Cl)SC(NNCCO)=NS2(=O)=O`: the TGI in assay [1], in assay [4], in assay [5], in assay [6], in assay [7] and in assay [18] was over 100 µM each time. Besides, the TGI in assay [8], in [9], in [10], in [11], in assay [12] and in assay [19] was over 100 µM in each case. Moreover, the TGI in assay [13], in [14], in [15] and in [16] was over 100 µM each time.

As to `COc1ccc(/C=N/NS(=O)(=O)c2ccc(/C=C3\NC(=O)N(C)C3=O)cc2)cc1`, the TGI in [1], in [2], in assay [3], in assay [4], in [5] and in assay [6] was over 100 µM each time. Further, the concentration for total growth inhibition (TGI) in [7], in assay [18], in assay [8], in [9], in assay [10] and in assay [11] was over 100 µM throughout. For the same compound, the TGI in assay [12], in [19], in [13], in assay [14], in assay [15] and in assay [16] was over 100 µM in each case.

With `Cc1cc(CN(Cc2ccccc2)Cc2nc3ccccc3[nH]2)c(O)c(CN(Cc2nc3ccccc3[nH]2)Cc2nc3ccccc3[nH]2)c1`, the TGI (as a rule, the concentration giving total growth inhibition) in assay [1] is over 100 µM; in assay [2] it was over 100 µM; in assay [3] it was over 95.1 µM; in assay [4], over 21.8 µM; in assay [5], 42.1 µM; in assay [6], 98.7 µM. Also, the TGI was over 48.6 µM in assay [18]; over 23.1 µM in assay [8]; 18.3 µM in assay [9]; 60.6 µM in assay [10]; over 26.3 µM in assay [11]; 19.5 µM in assay [12]. For the same compound, the TGI in [19] was over 67.9 µM; in [13], 8.87 µM; in assay [14], over 25.3 µM; in [15], over 100 µM; in assay [16] it was 14.7 µM; in assay [17], over 69.5 µM.

For the compound `c1ccc(N=C2C(=Nc3ccccc3)N(C3CCCCC3)C(=NC3CCCCC3)N2c2ccccc2)cc1`, the TGI in assay [1], in assay [3], in assay [5], in assay [7], in [18] and in assay [8] was over 100 µM in each case. In addition, the TGI in assay [9], in assay [10], in assay [11], in assay [12], in assay [19] and in assay [13] was over 100 µM each time. Further, the TGI in [14], in assay [15] and in assay [16] was over 100 µM in each case.

In the case of `CCOC(=O)CCC(NC(=O)c1ccc(OCc2ccc3nc(OC)c(OC)nc3c2)cc1)C(=O)OCC` (stereo unspecified), the TGI is over 100 µM in [1]; over 100 µM in assay [2]; over 100 µM in [3]; 93.5 µM in [4]; over 100 µM in [5]; over 100 µM in [7]. In addition, the total growth inhibition concentration (TGI) in [18], in [8], in assay [9], in [10], in assay [11] and in [12] was over 100 µM in each case. The concentration for total growth inhibition (TGI) was over 100 µM in assay [19]; over 100 µM in assay [13]; over 100 µM in [14]; over 100 µM in assay [15]; over 100 µM in assay [16]; 64.8 µM in assay [17].

Consider `CC(=O)O[C@@H]1[C@@H](C)[C@]2(CC(c3ccoc3)OC2O)C2CCC3O[C@]3(C)[C@]2(C)[C@@H]1OC(C)=O` (stereo partly specified), for which the TGI in assay [1] is over 100 µM; in assay [2], over 100 µM; in assay [3], over 100 µM; in assay [4], 61.5 µM; in assay [5], 64.9 µM; in [6] it was over 100 µM. The TGI in [7] was over 100 µM; in assay [18], over 100 µM; in [8], over 100 µM; in assay [9] it was 63.1 µM; in assay [10], over 100 µM; in assay [12], 64.3 µM. Also, the TGI in assay [19] was over 100 µM; in assay [13] it was over 100 µM; in assay [14] it was 58 µM; in assay [15], over 100 µM; in assay [16] it was over 100 µM; in assay [17] it was 69.7 µM.

Take `N=C1/C(=C/c2ccccc2)C(=O)N=C2SC=NN12`: the TGI in assay [1], in assay [2], in assay [3], in [4], in assay [5] and in assay [6] was over 100 µM each time. The concentration for total growth inhibition (TGI) in [7], in assay [8], in assay [9], in assay [10], in assay [11] and in [12] was over 100 µM in each case. Also, the TGI in [19], in assay [13], in assay [14], in assay [15], in [16] and in assay [17] was over 100 µM in each case.

In the case of `CCCC1=NC(C(F)(F)F)(C(F)(F)F)N=C(N2CCOCC2)O1`, the TGI in assay [1], in assay [2], in assay [3], in assay [4], in assay [5] and in [6] was over 100 µM each time. The TGI in assay [8], in assay [9], in assay [10], in assay [11], in [12] and in assay [19] was over 100 µM in each case. Moreover, the concentration for total growth inhibition (TGI) in [13], in assay [14], in [15] and in [16] was over 100 µM each time.

For the compound `c1ccc(CNCCCNCCCCNCCCNCc2ccccc2)cc1`, the concentration for total growth inhibition (TGI) in assay [1] was 3.74 µM; in assay [2] it was 15.5 µM; in assay [3], 45.5 µM; in assay [4], over 21.5 µM; in assay [5], 2.74 µM; in assay [6] it was 33.1 µM. The TGI is 21.4 µM in assay [7]; 33.8 µM in assay [8]; 33.3 µM in assay [9]; 11.2 µM in assay [10]; over 56.2 µM in assay [12]; 18 µM in assay [19]. The concentration for total growth inhibition (TGI) in [13] came out at 14.4 µM; in assay [14] it was 25.6 µM; in [15], 22.5 µM; in [16], 3.57 µM; in assay [17] it was 3.37 µM.

Turning to `c1ccc2c(c1)ccc1nc3ccccn3c12`, the total growth inhibition concentration (TGI) in [1], in assay [2], in assay [3], in assay [4], in assay [5] and in assay [7] was over 100 µM each time. Further, the TGI in assay [8], in [9], in assay [10], in [11], in [12] and in [19] was over 100 µM in each case. The TGI in assay [13], in assay [14], in assay [15] and in assay [16] was over 100 µM throughout.

As for `O=C(O)c1cccc(S(=O)(=O)NN2C(=O)CSC2c2ccccc2Cl)c1` (stereo unspecified), the concentration for total growth inhibition (TGI) in [1], in assay [2], in assay [3], in assay [4], in assay [5] and in assay [7] was over 100 µM each time. Moreover, the total growth inhibition concentration (TGI) in [8], in [9], in assay [10], in [11], in assay [12] and in assay [19] was over 100 µM throughout. The TGI in assay [13], in assay [14], in assay [15], in [16] and in assay [17] was over 100 µM each time.

On to `N=c1oc2ccc([N+](=O)[O-])cc2cc1C(=O)Nc1ccccn1`, for which the concentration for total growth inhibition (TGI) in assay [1] was 78.5 µM; in [2] it was over 100 µM; in assay [3], over 100 µM; in assay [4] it was over 100 µM; in [5] it was over 100 µM; in assay [6], over 100 µM. In addition, the TGI is over 100 µM in assay [7]; over 100 µM in [18]; over 100 µM in assay [8]; over 100 µM in assay [9]; 43.9 µM in assay [10]; over 100 µM in [11]. Moreover, the TGI was over 100 µM in assay [12]; over 100 µM in assay [13]; over 100 µM in [14]; over 100 µM in assay [15]; over 100 µM in assay [16]; 86.2 µM in assay [17].

Take `c1csc(-c2cscc2-c2cccs2)c1`: the TGI in [1], in assay [2], in assay [3], in assay [4], in assay [5] and in [6] was over 100 µM throughout. The concentration for total growth inhibition (TGI) in assay [7] is over 100 µM; in [18], over 100 µM; in assay [8], over 100 µM; in assay [9], over 100 µM; in [10] it was 39.9 µM; in assay [11] it was over 100 µM. Besides, the concentration for total growth inhibition (TGI) in [12] was over 100 µM; in [19], over 100 µM; in assay [13], 49.5 µM; in [14] it was over 100 µM; in assay [15], over 100 µM; in assay [16], over 100 µM.

On to `CC(C)CC(NC=O)C(=O)NC(Cc1ccccc1)NC(=O)CNC(=O)C(C)NC(=O)OC(C)(C)C` (stereo unspecified), for which the total growth inhibition concentration (TGI) in assay [1], in assay [2], in assay [3], in [5], in [6] and in assay [7] was over 100 µM in each case. Moreover, the TGI in [18], in assay [8], in assay [9], in [10], in assay [11] and in [12] was over 100 µM throughout. The TGI in assay [19], in assay [13], in [14], in assay [15], in [16] and in assay [17] was over 100 µM throughout.

These data come from PubChem BioAssay (NCI).
